Assay results: patent publication US10604739B2, “Cardiomyocyte production” (Cellular Dynamics International, Inc., priority 2009, dated 2020)

Legend:
Assay type in all cases: cell-based, human
[1] = system: iPS cells; experiment: H1152 duration and aggregate formation, Experiment 1: cardiomyocyte differentiation; set-up: Average Cardiomyocyte Yield: unit not given here; settings: for Average # cTnT Cells/Liter (in millions) / Average % Troponin T+ / Average Cardiomyocyte Yield / Average Cell Count per flask (in millions) / Average ratio iPS to CM: day 14, T25
Protocol: (§1) The purpose of this Example was to see the effect of 1 day or 2 day treatment with the compound on Cardiomyocyte development. Initial testing with H1152 included the compound in the media: 1 μM on day one with the TeSR media and 0.5 μM on day 2 with the compound in the aggregate transition media. After adopting a new method which included the H1152 compound for 1 day at 1 μM only, there appeared to be a loss of efficiency with the initial cell survival, resulting in this study to determine if extended H1152 would increase cell survival without a negative impact on […]. Cardiomyocyte differentiation conditions and experimental parameters were summarized in Tables 11-12 and 13-14 for Experiments 1 and 2, respectively. Critical reagents and materials were obtained as described in the previous example.

[2] = system: iPS cells; experiment: H1152 duration and aggregate formation, Experiment 2: cardiomyocyte differentiation; set-up: Average Cardiomyocyte Yield: unit not given here; settings: for Average # cTnT Cells/Liter (in millions) / Average % Troponin T+ / Average Cardiomyocyte Yield / Average Cell Count per flask (in millions) / Average ratio iPS to CM: day 14, T25
Protocol: as §1

[3] = system: IPS 6.1 cells; experiment: Effect of different concentrations of H1152 on cell survival; settings: one day dose, FIG. 28
Protocol: FIG. 28: Effect of different concentrations of H1152 on cell survival with one day dose of H1152 on IPS 6.1 cells.
Effect of different concentrations of H1152 was also tested on cell survival with one day dose of H1152 on IPS 6.1 cells (FIG. 28).

[4] = 3e5 cells/ml seeding, H1152 1 μM 24 hour exposure
[5] = 3e5 cells/ml seeding, H1152 1 μM 48 hour exposure
[6] = 5e5 cells/ml seeding, H1152 1 μM 24 hour exposure
[7] = 5e5 cells/ml seeding, H1152 1 μM 48 hour exposure
[8] = 7e5 cells/ml seeding, H1152 1 μM 24 hour exposure
[9] = 7e5 cells/ml seeding, H1152 1 μM 48 hour exposure
[10] = 10e5 cells/ml seeding, H1152 1 μM 24 hour exposure
[11] = 10e5 cells/ml seeding, H1152 1 μM 48 hour exposure
[12] = 15e5 cells/ml seeding, H1152 1 μM 24 hour exposure
[13] = 15e5 cells/ml seeding, H1152 1 μM 48 hour exposure

Cc1cncc2cccc(S(=O)(=O)N3CCCNC[C@@H]3C)c12 [H1152]
Average # cTnT Cells/Liter (in millions) [1, 4]: 2.91 ± 1.27 millions
Average % Troponin T+ [1, 4]: 6.83 ± 0.26%
Average Cardiomyocyte Yield [1, 4]: 17445 ± 7677
Average Cell Count per flask (in millions) [1, 4]: 0.25 ± 0.11 millions
Average ratio iPS to CM [1, 4]: 99 ± 45
Average # cTnT Cells/Liter (in millions) [1, 5]: 9.92 ± 0.25 millions
Average % Troponin T+ [1, 5]: 4.40 ± 1.00%
Average Cardiomyocyte Yield [1, 5]: 59575 ± 1514
Average Cell Count per flask (in millions) [1, 5]: 1.39 ± 0.28 millions
Average ratio iPS to CM [1, 5]: 25 ± 1
Average # cTnT Cells/Liter (in millions) [1, 6]: 3.02 ± 1.66 millions
Average % Troponin T+ [1, 6]: 6.26 ± 3.40%
Average Cardiomyocyte Yield [1, 6]: 18123 ± 10004
Average Cell Count per flask (in millions) [1, 6]: 0.46 ± 0.48 millions
Average ratio iPS to CM [1, 6]: 180 ± 119
Average # cTnT Cells/Liter (in millions) [1, 7]: 19.52 ± 8.01 millions
Average % Troponin T+ [1, 7]: 3.37 ± 1.12%
Average Cardiomyocyte Yield [1, 7]: 117137 ± 48094
Average Cell Count per flask (in millions) [1, 7]: 3.41 ± 0.47 millions
Average ratio iPS to CM [1, 7]: 24 ± 11
Average # cTnT Cells/Liter (in millions) [1, 8]: 6.54 ± 0.91 millions
Average % Troponin T+ [1, 8]: 5.41 ± 1.58%
Average Cardiomyocyte Yield [1, 8]: 39272 ± 5494
Average Cell Count per flask (in millions) [1, 8]: 0.77 ± 0.29 millions
Average ratio iPS to CM [1, 8]: 90 ± 12
Average # cTnT Cells/Liter (in millions) [1, 9]: 11.71 ± 6.74 millions
Average % Troponin T+ [1, 9]: 2.23 ± 0.28%
Average Cardiomyocyte Yield [1, 9]: 70299 ± 40479
Average Cell Count per flask (in millions) [1, 9]: 3.19 ± 1.81 millions
Average ratio iPS to CM [1, 9]: 72 ± 58
Average # cTnT Cells/Liter (in millions) [1, 10]: 8.53 ± 3.67 millions
Average % Troponin T+ [1, 10]: 3.29 ± 2.73%
Average Cardiomyocyte Yield [1, 10]: 51174 ± 22025
Average Cell Count per flask (in millions) [1, 10]: 1.95 ± 0.91 millions
Average ratio iPS to CM [1, 10]: 116 ± 66
Average # cTnT Cells/Liter (in millions) [1, 11]: 37.33 ± 11.90 millions
Average % Troponin T+ [1, 11]: 4.70 ± 1.08%
Average Cardiomyocyte Yield [1, 11]: 224015 ± 71410
Average Cell Count per flask (in millions) [1, 11]: 4.69 ± 0.64 millions
Average ratio iPS to CM [1, 11]: 24 ± 9
Average # cTnT Cells/Liter (in millions) [1, 12]: 13.35 ± 5.17 millions
Average % Troponin T+ [1, 12]: 2.05 ± 0.89%
Average Cardiomyocyte Yield [1, 12]: 80131 ± 31034
Average Cell Count per flask (in millions) [1, 12]: 4.01 ± 0.46 millions
Average ratio iPS to CM [1, 12]: 105 ± 43
Average # cTnT Cells/Liter (in millions) [1, 13]: 49.87 ± 21.23 millions
Average % Troponin T+ [1, 13]: 4.84 ± 1.61%
Average Cardiomyocyte Yield [1, 13]: 299246 ± 127411
Average Cell Count per flask (in millions) [1, 13]: 6.16 ± 1.31 millions
Average ratio iPS to CM [1, 13]: 28 ± 10
Effect of increasing H1152 exposure duration to 48 hours on cTnT yield ([1]; Experiment 1, each cell density condition, 14 days): increased cTnT yield in each cell density condition
Cell survival ([1]; two day treatment at 1 μM, each of the experiments): significant increase in the cell survival
Average # cTnT Cells/Liter (in millions) [2, 4]: 11.06 ± 9.07 millions
Average % Troponin T+ [2, 4]: 12.71 ± 1.72%
Average Cardiomyocyte Yield [2, 4]: 66383 ± 54471
Average Cell Count per flask (in millions) [2, 4]: 0.57 ± 0.54 millions
Average ratio iPS to CM [2, 4]: 33 ± 20
Average # cTnT Cells/Liter (in millions) [2, 5]: 34.67 ± 15.81 millions
Average % Troponin T+ [2, 5]: 7.99 ± 2.24%
Average Cardiomyocyte Yield [2, 5]: 208066 ± 94874
Average Cell Count per flask (in millions) [2, 5]: 2.52 ± 0.51 millions
Average ratio iPS to CM [2, 5]: 8 ± 4
Average # cTnT Cells/Liter (in millions) [2, 6]: 8.84 ± 6.01 millions
Average % Troponin T+ [2, 6]: 9.98 ± 2.40%
Average Cardiomyocyte Yield [2, 6]: 53055 ± 36109
Average Cell Count per flask (in millions) [2, 6]: 0.52 ± 0.35 millions
Average ratio iPS to CM [2, 6]: 67 ± 49
Average # cTnT Cells/Liter (in millions) [2, 7]: 38.40 ± 23.14 millions
Average % Troponin T+ [2, 7]: 5.20 ± 3.33%
Average Cardiomyocyte Yield [2, 7]: 230454 ± 138874
Average Cell Count per flask (in millions) [2, 7]: 4.56 ± 0.48 millions
Average ratio iPS to CM [2, 7]: 14 ± 7
Average # cTnT Cells/Liter (in millions) [2, 10]: 14.18 ± 7.34 millions
Average % Troponin T+ [2, 10]: 5.42 ± 1.08%
Average Cardiomyocyte Yield [2, 10]: 85129 ± 44092
Average Cell Count per flask (in millions) [2, 10]: 1.54 ± 063 millions
Average ratio iPS to CM [2, 10]: 72 ± 42
Average # cTnT Cells/Liter (in millions) [2, 11]: 16.03 ± 13.63 millions
Average % Troponin T+ [2, 11]: 1.40 ± 1.45%
Average Cardiomyocyte Yield [2, 11]: 96206 ± 81824
Average Cell Count per flask (in millions) [2, 11]: 7.84 ± 1.14 millions
Average ratio iPS to CM [2, 11]: 77 ± 44
Average # cTnT Cells/Liter (in millions) [2, 12]: 28.54 ± 10.83 millions
Average % Troponin T+ [2, 12]: 6.48 ± 2.42%
Average Cardiomyocyte Yield [2, 12]: 171264 ± 65034
Average Cell Count per flask (in millions) [2, 12]: 2.63 ± 0.14 millions
Average ratio iPS to CM [2, 12]: 48 ± 17
Average # cTnT Cells/Liter (in millions) [2, 13]: 28.13 ± 30.17 millions
Average % Troponin T+ [2, 13]: 2.36 ± 2.03%
Average Cardiomyocyte Yield [2, 13]: 168815 ± 181030
Average Cell Count per flask (in millions) [2, 13]: 6.16 ± 1.31 millions
Average ratio iPS to CM [2, 13]: 97 ± 85
Effect of increasing H1152 exposure duration to 48 hours on cTnT yield ([2]; Experiment 2, cultures initially seeded with 3e5 and 5e5 cells/mL, 14 days): increased cTnT yield in the cultures initially seeded with 3e5 and 5e5 cells/mL
Optimal concentration for aggregate formation [3]: 1 µM
